Assay results taken from patent publication US20160256398A1 (H. Lundbeck A/S, priority 2009, published 2016).
“Also recorded” adds a separate entry of the source.

What was measured:
[1] = 5-way crossover study in healthy volunteers: adverse events by administration form; assay type: in vivo, human
Excerpt: (§1) 23 subject (12 men and 11 women) participated in the trial; due to drop-outs however, not all 23 subjects received all five treatments—see below for details.
The proximal small bowel is approximately the first meter of the jejunum, and the distal small bowel is approximately the last meter of the ileum, including terminal ileum up to the ileo-caecal junction.
The Enterion™ capsule allows targeted delivery of an active substance into any region of the GI tract. The capsule contains a drug reservoir and a separate compartment for a radioactive tracer. The floor of the reservoir acts a piston which is held back against a spring by a polymer filament. By means of gamma scintigraphy (an imaging technique) the exact position of the capsule in the GI tract can be determined real-time. When the capsule has reached its desired position in the GI tract, a magnetic field is applied which causes an antenna in the capsule all to heat up. The heated antenna is in contact with the polymer filament which softens and eventually breaks which sets the piston (reservoir floor) free and rapidly releases the drug. The Enterion™ capsule is available from Partner Tech, UK.
(§2) Blood samples were obtained at regular intervals 240 hours post-dosing of the IR tablet, post-start of the infusion and post-activation of the Enterion™ capsule. […] Additionally, adverse events were recorded. Food (soup) was provided 4 hours post-dose and dinner 10 hours post-dose.
All 23 subjects received treatments A and B; 22 subjects received treatment C; 20 subjects received treatment D; and 19 received treatment E.
The table below summarises the adverse events recorded during the course of the trial.

[2] = depressed patients; cited from earlier work
[3] = 5-way crossover study in healthy volunteers: plasma concentration-time profile; assay type: in vivo, human
Experimental: as §1, §2
The plasma concentration time profiles are depicted in FIG. 1.

[4] = tested on: acetylcholine, norepinephrine, dopamine, and serotonin in brain regions associated with mood regulation; conditions: extracellular levels in rat brains; cited from earlier work
[5] = cited from earlier work
[6] = Regimen B: 20 mg, single oral dose, two 10 mg IR tablets, 23 subjects
[7] = Regimen C: 9 mg iv infusion over 6 hours, 22 subjects
[8] = Regimen D: 20 mg solution via Enterion capsule to proximal small bowel, 20 subjects
[9] = Regimen E: 20 mg solution via Enterion capsule to distal small bowel, 19 subjects

Br.Cc1ccc(Sc2ccccc2N2CCNCC2)c(C)c1 [Compound I HBr, 1-[2-(2,4-dimethyl-phenylsulfanyl)-phenyl]piperazine hydrobromide]
Abdominal pain [1, 6]: 2 no of subjects | Fatigue [1, 6]: 2 no of subjects | Headache [1, 6]: 3 no of subjects | Lightheadedness/postural dizziness (no BP drop) [1, 6]: 5 no of subjects | Nausea [1, 6]: 9 no of subjects | Retching [1, 6]: 1 no of subjects | Vomiting [1, 6]: 2 no of subjects | Abnormal liver function tests [1, 7]: 1 no of subjects | Headache [1, 7]: 2 no of subjects | Nausea [1, 7]: 1 no of subjects | Postural hypotension [1, 7]: 2 no of subjects | Abdominal pain [1, 8]: 1 no of subjects | Headache [1, 8]: 1 no of subjects | Lightheadedness/postural dizziness (no BP drop) [1, 8]: 1 no of subjects | Nausea [1, 8]: 3 no of subjects | Postural hypotension [1, 8]: 1 no of subjects | Pruritis [1, 8]: 1 no of subjects | Vomiting [1, 8]: 1 no of subjects | Abdominal pain [1, 9]: 1 no of subjects | Nausea [1, 9]: 2 no of subjects | Postural hypotension [1, 9]: 3 no of subjects | Rash [1, 9]: 1 no of subjects

Fc1ccc([C@@H]2CCNC[C@H]2COc2ccc3c(c2)OCO3)cc1 [paroxetine]
nausea with enteric coated, sustained release tablet compared with IR tablet [2]: less nausea | other GI related adverse events such as diarrhea, abnormal ejaculation, female genital disorders and dizziness with enteric coated tablet compared with IR tablet [2]: appeared to increase

Cc1ccc(Sc2ccccc2N2CCNCC2)c(C)c1 [Compound I, 1-[2-(2,4-dimethyl-phenylsulfanyl)-phenyl]piperazine]
overall number of adverse events ([1]; regimen B, IR tablet): most adverse events | overall number of adverse events ([1]; regimen C, D and E: i.v. infusion, released in the proximal or distal small bowel): markedly lower number of adverse events | plasma concentration-time profile, dependence on administration form ([3]; IR tablet versus release in the small intestine (FIG. 1, regimens B, D, E)): virtually independent on whether Compound I is administered in an IR tablet or released in the small intestine | characteristics of plasma concentration-time profile ([3]; administration in an IR composition): relative late tmax and a plasma concentration plateau around tmax | levels of acetylcholine, norepinephrine (noradrenaline), dopamine and serotonin in brain [4]: increase; also recorded: significant increases | sleep and sexually related adverse events in depressed patients ([5]; clinical trials disclosed in WO 2008/113359): surprisingly low level | efficacy in the treatment of major depressive disorder ([5]; dosed at 5 and 10 mg): efficacious | safety and tolerability in first clinical trial ([5]; dosed at 5 and 10 mg): safe and well-tolerated
